Laboratory results taken from patent US20100029689A1, “PHOSPHODIESTERASE 4 INHIBITORS” (MEMORY PHARMACEUTICALS CORPORATION, priority 2008, published 2010).

SMILES | melting point [°C]
COc1ccc(N(Cc2ccc(=O)[nH]c2)c2ccc(C(=O)O)cc2)cc1OC1CCCC1 [Compound 29] | 143.7 to 145.9
COc1ccc(N(Cc2cncs2)c2cccc(C(=O)O)c2)cc1OC1CCCC1 [Compound 35] | 65.6 to 70.6
COc1ccc(N(Cc2cn[nH]c2)c2ccc(C(=O)O)cc2)cc1OC1CCCC1 [Compound 39] | 108.9 to 112.3
COc1ccc(N(Cc2cncs2)c2ccc(C(=O)O)cc2)cc1OC1CCCC1 [Compound 40] | 88 to 90.3
COc1ccc(N(Cc2cncnc2)c2ccc(C(=O)O)cc2)cc1OC1CCCC1 [Compound 43] | 156.6 to 159.8
COc1ccc(N(Cc2cscn2)c2cccc(C(=O)O)c2)cc1OC1CCCC1 [Compound 45] | 75.5 to 77.7
COc1ccc(N(Cc2cccnn2)c2cccc(C(=O)O)c2)cc1OC1CCCC1 [Compound 48] | 178.9 to 184.3
COc1ccc(N(CC2CCNCC2)c2cccc(C(=O)O)c2)cc1OC1CCCC1 [Compound 50] | 228.8 to 232.1
COc1ccc(N(Cc2cnc(N(C)C)nc2)c2ccc(C(=O)O)cc2)cc1OC1CCCC1 [Compound 51] | 95.9 to 99.5
COc1ccc(N(Cc2cnc(N(C)C)nc2)c2cccc(C(=O)O)c2)cc1OC1CCCC1 [Compound 52] | 82 to 84.7
O=C(O)c1ccc(N(Cc2cncs2)c2ccc(OC(F)F)c(OC(F)F)c2)cc1 [Compound 59] | 144.3 to 145.7
O=C(O)Cc1ccc(N(Cc2cccnc2)c2ccc(OC(F)F)c(OC(F)F)c2)cc1 [Compound 69] | 107.4 to 108.1
COc1ccc(N(Cc2cncs2)c2cccc(C(=O)O)c2)cc1O[C@@H]1CCOC1 [Compound 70] | 60.3 to 61.9
COc1ccc(N(Cc2cncs2)c2ccc(C(=O)O)cc2)cc1O[C@@H]1CCOC1 [Compound 71] | 60.3 to 60.8
COc1ccc(N(Cc2cncs2)c2ccc(C(=O)O)cc2)cc1OCC1CC1 [Compound 72] | 128.7 to 129.4
COc1ccc(N(Cc2cncs2)c2cccc(C(=O)O)c2)cc1OCC1CC1 [Compound 73] | 137.4 to 139.4
O=C(O)c1ccc(N(Cc2cccnn2)c2ccc(OC(F)F)c(OC(F)F)c2)cc1 [Compound 74] | 162.6 to 164.8
O=C(O)c1ccc(N(Cc2cncnc2)c2ccc(OC(F)F)c(OC(F)F)c2)cc1 [Compound 80] | 186.7 to 187.4
CCOc1cc(N(Cc2cncs2)c2ccc(C(=O)O)cc2)ccc1OC(F)F [Compound 99] | 67 to 69.3
O=C(O)c1ccc(N(Cc2cncs2)c2ccc(OC(F)F)c(OC3CCCC3)c2)cc1 [Compound 104] | 67.3 to 69.7
CC(C)Oc1cc(N(Cc2cncs2)c2ccc(C(=O)O)cc2)ccc1OC(F)F [Compound 106] | 158 to 158.5
CC(C)Oc1cc(N(Cc2cccnc2)c2ccc(C(=O)O)cc2)ccc1OC(F)F [Compound 107] | 66.5 to 67.9
CC(C)Oc1cc(N(Cc2cccnc2)c2cccc(C(=O)O)c2)ccc1OC(F)F [Compound 108] | 57.3 to 58.9
CC(C)Oc1cc(N(Cc2cncs2)c2cccc(C(=O)O)c2)ccc1OC(F)F [Compound 109] | 58.6 to 60
O=C(O)c1cccc(N(Cc2cncs2)c2ccc(OC(F)F)c(OC3CCCC3)c2)c1 [Compound 110] | 56.3 to 58
COc1cc(N(Cc2cncs2)c2ccc(C(=O)O)cc2)ccc1OC(F)F [Compound 120] | 164.9 to 165.3
COc1cc(N(Cc2cccnc2)c2ccc(C(=O)O)cc2)ccc1OC(F)F [Compound 124] | 182.4 to 183.4

SMILES | melting point [°C]
CCCCOc1cc(N(Cc2cccnc2)c2ccc(C(=O)O)cc2)ccc1OC(F)F [Compound 128] | 133.7 to 135.1
CCCCOc1cc(N(Cc2cncs2)c2ccc(C(=O)O)cc2)ccc1OC(F)F [Compound 129] | 158.7 to 159.5
CCOc1cc(N(Cc2cncs2)c2ccc(C(=O)O)cc2)ccc1OC [Compound 130] | 73.1 to 74.5
COc1ccc(N(Cc2cncs2)c2ccc(C(=O)O)cc2)cc1OC(C)C [Compound 131] | 67.8 to 69.1
COc1ccc(N(Cc2cncs2)c2ccc(C(=O)O)cc2)cc1OC [Compound 138] | 86.4 to 88.3
O=C(O)c1ccc(N(Cc2cnco2)c2ccc(OC(F)F)c(OC(F)F)c2)cc1 [Compound 141] | 132.4 to 135
O=C(O)c1ccc(N(Cc2cnccn2)c2ccc(OC(F)F)c(OC(F)F)c2)cc1 [Compound 142] | 158 to 161.1
CCOc1cc(N(Cc2cncnc2)c2ccc(C(=O)O)cc2)ccc1OC(F)F [Compound 143] | 165.3 to 165.9
CCOc1cc(N(Cc2cnco2)c2ccc(C(=O)O)cc2)ccc1OC(F)F [Compound 144] | 111.1 to 113
COc1ccc(N(Cc2cncs2)c2cccc(C(=O)O)c2)cc1OC(F)F [Compound 149] | 86.4 to 88.3
COc1ccc(N(Cc2cncs2)c2ccc(C(=O)O)cc2)cc1OC(F)F [Compound 150] | 86.4 to 88.3
COc1cc(N(Cc2cncnc2)c2ccc(C(=O)O)cc2)ccc1OC(F)F [Compound 153] | 191.3 to 191.5
COc1cc(N(Cc2cnccn2)c2ccc(C(=O)O)cc2)ccc1OC(F)F [Compound 154] | 157.2 to 157.7
CC(C)Oc1cc(N(Cc2cnccn2)c2ccc(C(=O)O)cc2)ccc1OC(F)F [Compound 155] | 132.3 to 135.7
CC(C)Oc1cc(N(Cc2cnccn2)c2cccc(C(=O)O)c2)ccc1OC(F)F [Compound 156] | 81.2 to 82
O=C(O)c1ccc(N(Cc2cnccn2)c2ccc(OC(F)F)c(OCC3CC3)c2)cc1 [Compound 157] | 81.2 to 82.3
O=C(O)c1cccc(N(Cc2cnccn2)c2ccc(OC(F)F)c(OCC3CC3)c2)c1 [Compound 159] | 72.7 to 73.1
CC(C)Oc1cc(N(Cc2cncs2)c2cncc(C(=O)O)c2)ccc1OC(F)F [Compound 160] | 121.7 to 123.1
CNS(=O)(=O)c1ccc(N(Cc2cncs2)c2ccc(OC(F)F)c(OC(F)F)c2)cc1 [Compound 165] | 105.5 to 106.4
O=C(O)c1ccc(N(Cc2cncnc2)c2ccc(OC(F)F)c(OCC3CC3)c2)cc1 [Compound 168] | 265.1 to 266.6
CCOc1ccc(N(Cc2cncs2)c2ccc(C(=O)O)cc2)cc1OCC [Compound 170] | 77 to 79
COc1ccc(N(Cc2cnco2)c2ccc(C(=O)O)cc2)cc1OC(C)C [Compound 180] | 60.3 to 61
CCOc1cc(N(Cc2cnco2)c2ccc(C(=O)O)cc2)ccc1OC [Compound 181] | 175.6 to 176.9
COc1ccc(N(Cc2cnco2)c2ccc(C(=O)O)cc2)cc1OCC1CC1 [Compound 183] | 160 to 161.7
COc1ccc(N(Cc2cnco2)c2ccc(C(=O)O)cc2)cc1OC1CCC1 [Compound 184] | 148 to 150.3
COc1cc(N(Cc2cncnc2)c2ccc(C(=O)O)cc2)ccc1OCC(F)(F)F [Compound 186] | 208.7 to 209.9
COc1ccc(N(Cc2cncnc2)c2ccc(C(=O)O)cc2)cc1OC(C)C [Compound 192] | 181.7 to 183.6
